Bridge positions count the residues as written; N and C are the ends. Peptide text beside a SMILES is read from it.
Tests used:
bovine trypsin = biological target: T1, bovine trypsin (Bos taurus, UniProt P00760); assay: Surface plasmon resonance binding to trypsin
T1 sequence (P00760 24-246): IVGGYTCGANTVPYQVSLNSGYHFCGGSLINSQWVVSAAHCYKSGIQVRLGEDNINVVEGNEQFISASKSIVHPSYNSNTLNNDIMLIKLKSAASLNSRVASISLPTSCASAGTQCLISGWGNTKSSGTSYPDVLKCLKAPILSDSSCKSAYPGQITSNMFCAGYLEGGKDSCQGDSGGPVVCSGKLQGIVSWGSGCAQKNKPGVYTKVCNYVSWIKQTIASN

[1] = tested on: clotting via the extrinsic pathway; assay: Prothrombin time (PT) assay in human plasma; type: biochemical; details: at 10 μM
Description: Citrated, platelet-poor plasma samples from healthy adults were collected, prepared, and stored using previously established collection protocols, such as in Zdenek et al. (2019) Toxicol in Vitro, 58: 97-109.
Standard coagulation assays were used to determine the effect of the inhibitors on the clotting time of human plasma. Activated partial thromboplastin time (aPTT) uses a Kaolin reagent (clay) to activate the intrinsic/contact pathway of the coagulation cascade, whereas prothrombin time (PT) uses Neoplastine (lyophilized thromboplastin prepared from rabbit cerebral tissue) to activate the extrinsic/tissue-factor pathway of the coagulation cascade. A minor adjustment was made to both tests (addition of 25 μL inhibitor or buffer; refer to Table 17) to accommodate the addition of an inhibitor without changing the total volume (and therefore relative ratios of additives) of the assay. Concentrations of inhibitor are reported as the concentration at the point of incubation in the assay, i.e. not taking into account the addition of the start reagent (calcium for aPTT, or Neoplastine for PT).
Clotting time (seconds) of plasma was automatically measured using a STA-R Max® analyzer (Stago, Asnieres sur Seine, France). Measurements were conducted using a viscosity-based (mechanical) detection system, whereby opposing magnets oscillate a small metal spherical pellet inside the test cuvette (250 μL total volume) until a clot is formed. Dilution of the inhibitor in Owren-Koller (OK) buffer for dose-response curves was performed automatically by the machine. Reagents were kept at 15-19° C. in the machine during experimentation and otherwise stored at 4° C. All tests were performed in triplicate.

Human plasmin = biological target: T2, Human plasmin (Homo sapiens, UniProt P00747); assay: Plasmin inhibition assay; type: biochemical
T2 construct: Human cationic trypsin and human plasmin were obtained from Sigma-Aldrich, and recombinant human matriptase was sourced from R&D Systems; purchased Sigma-Aldrich; host or cells: purified from human plasma
Experimental: The activity of acyclic and cyclic MCoFx1-5 and analogues thereof was assessed in competitive inhibition assays, as previously described in Swedberg et al. (2016) J Med Chem, 59: 7287-7292. Human β-FXIIa was obtained from Molecular Innovations, together with human FXa, human FXIa, human α-thrombin, and human plasma kallikrein. Human cationic trypsin and human plasmin were obtained from Sigma-Aldrich, and recombinant human matriptase was sourced from R&D Systems. Recombinant human urokinase (uPA) and recombinant human tissue plasminogen activator (tPA) were expressed in Expi293 cells, as previously described in Li et al. (2019) Chembiochem, 20: 46-50. FXIIa inhibition assays were performed in clear, low-binding 96-well plates using 250 μL (final volume) of assay buffer (0.1 M Tris-HCl pH 8.0, 0.1 M NaCl, 10 mM CaCl2 and 0.005% Triton X-100). Inhibitors were serially diluted and incubated with 10 nM FXIIa at room temperature to reach equilibrium. After adding 100 μM Ac-QRFR-pNA substrate (KM=162 μM), enzymatic activity was measured by monitoring release of the pNA moiety using a TECAN infinite M1000 Pro plate reader (A=405 nm, reading interval, 10 s; assay time course, 7 min). Assays were conducted in three times in duplicate. Substrate kinetic constants (Michaelis-Menten) and inhibition constants (Morrison K) were determined by non-linear regression using Prism 7 (GraphPad). Selectivity assays with off-target proteases were performed in a similar way, except that different concentrations of enzyme and substrate were used, as indicated in Table 16. For assays using a fluorescent substrate (peptide-4-methylcoumaryl-7-amide, MCA), black low-binding 96-well plates were used and activity was measured using a TECAN infinite M1000 pro plate reader (λex 360 nm, λem 460 nm, reading interval, 30 s; assay time course, 5-30 min).

Rec. human matriptase = biological target: T3, Rec. human matriptase (Homo sapiens, UniProt Q9Y5Y6); assay: Matriptase inhibition assay; type: biochemical; details: Table 10; read-out: Ki Matriptase
T3 construct: purchased R&D Systems
T3 sequence (Q9Y5Y6 615-855 limits assumed): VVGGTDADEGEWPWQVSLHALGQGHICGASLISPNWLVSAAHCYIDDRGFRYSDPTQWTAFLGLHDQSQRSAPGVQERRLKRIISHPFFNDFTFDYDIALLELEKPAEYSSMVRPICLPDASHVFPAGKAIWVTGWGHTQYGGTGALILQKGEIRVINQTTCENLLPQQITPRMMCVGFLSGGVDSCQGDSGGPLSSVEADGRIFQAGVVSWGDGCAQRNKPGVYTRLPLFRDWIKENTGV
Procedure, shortened: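 Serially diluted inhibitors equilibrated at room temperature with 10 nM β-FXIIa in 0.1 M Tris-HCl pH 8.0, 0.1 M NaCl, 10 mM CaCl2, 0.005% Triton X-100; 100 μM Ac-QRFR-pNA (KM=162 μM), A405 over 7 min. Off-target proteases used differing enzyme/substrate levels, some with fluorogenic MCA substrates (ex 360/em 460 nm, 5-30 min). Morrison Ki by non-linear regression.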

T2 sequence (P00747 581-810 limits assumed): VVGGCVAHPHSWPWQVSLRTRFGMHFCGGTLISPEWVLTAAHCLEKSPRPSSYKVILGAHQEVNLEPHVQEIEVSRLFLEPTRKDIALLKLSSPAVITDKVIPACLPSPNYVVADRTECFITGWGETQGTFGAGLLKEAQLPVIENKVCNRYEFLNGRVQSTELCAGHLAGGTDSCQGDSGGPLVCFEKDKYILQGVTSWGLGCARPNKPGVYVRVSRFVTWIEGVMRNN
T2 sequence (P00747 97-580 partner limits assumed): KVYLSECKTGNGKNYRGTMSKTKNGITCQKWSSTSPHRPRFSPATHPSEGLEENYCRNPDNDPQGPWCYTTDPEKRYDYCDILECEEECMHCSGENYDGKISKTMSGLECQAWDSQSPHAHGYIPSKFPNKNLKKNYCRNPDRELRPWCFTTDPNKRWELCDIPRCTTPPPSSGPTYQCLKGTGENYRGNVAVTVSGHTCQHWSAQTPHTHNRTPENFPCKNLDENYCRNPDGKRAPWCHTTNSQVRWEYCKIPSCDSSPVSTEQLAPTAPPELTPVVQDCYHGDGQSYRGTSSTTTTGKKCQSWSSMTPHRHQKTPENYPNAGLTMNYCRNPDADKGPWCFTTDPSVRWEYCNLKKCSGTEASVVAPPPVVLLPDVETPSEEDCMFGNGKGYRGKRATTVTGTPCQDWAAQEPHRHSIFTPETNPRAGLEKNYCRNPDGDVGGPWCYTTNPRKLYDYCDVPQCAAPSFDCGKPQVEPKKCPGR

Structure (SMILES): CC[C@H](C)[C@@H]1NC(=O)CNC(=O)CNC(=O)[C@H](CC(=O)O)NC(=O)[C@H](Cc2ccc(O)cc2)NC(=O)CNC(=O)[C@H](CO)NC(=O)CNC(=O)[C@@H]2CSSC[C@@H]3NC(=O)[C@H](CC(=O)O)NC(=O)[C@H](CO)NC(=O)[C@H](CC(=O)O)NC(=O)[C@H](CCCNC(=N)N)NC(=O)[C@H](CCCNC(=N)N)NC(=O)[C@@H]4CSSC[C@H](NC(=O)[C@H]([C@@H](C)CC)NC(=O)[C@H](CSSC[C@H](NC1=O)C(=O)N1CCC[C@H]1C(=O)N[C@@H](CCCNC(=N)N)C(=O)N[C@@H]([C@@H](C)CC)C(=O)NCC(=O)N[C@@H](CCCNC(=N)N)C(=O)N[C@@H](CC(C)C)C(=O)N4)NC(=O)[C@H](C)NC(=O)CNC(=O)[C@@H]1CCCN1C3=O)C(=O)N[C@@H](CCCNC(=N)N)C(=O)N[C@@H](C)C(=O)N[C@@H]([C@@H](C)O)C(=O)N[C@@H](CCCNC(=N)N)C(=O)N[C@@H](Cc1ccccc1)C(=O)N2 [MCoFx1 cyclic] (cyclo(ACICRATRFCGSGYDGGICPRIGRLCRRDSDCPG); disulfide 2-19, 4-26, 10-32)
- Kd (bovine trypsin; Table 8, cyclic form, read-out: KD (nM) Trypsin Cyclic): 31.5 nM
- fold lower affinity for trypsin compared with MCoTI-II (bovine trypsin; ratio of KD values): 300 fold
- clotting time compared to control, PT assay [1]: No significant differences in clotting time compared to control assays
- inhibition at 5 µM (Human plasmin; at 5 μM, read-out: percent inhibition Plasmin): 13%
- IC50 (Human plasmin; read-out: IC50 Plasmin): > 5 µM
- Ki (Rec. human matriptase): 9.12 µM

Reference: patent US20240344241A1, “PROTEINACEOUS MOLECULES AND USES THEREFOR” (THE UNIVERSITY OF QUEENSLAND, priority 2021, published 2024)
